Entries after “also recorded” stand apart in the source; their conditions may differ.
What was measured:
soybean 15-LOX = target: T1, soybean 15-LOX (Glycine max, UniProt P08170); experiment: In vitro 15-lipoxygenase inhibition assay; format: biochemical; settings: read-out: IC50 (µM) ± SEM 15-LOX
T1 sequence (P08170 1-839): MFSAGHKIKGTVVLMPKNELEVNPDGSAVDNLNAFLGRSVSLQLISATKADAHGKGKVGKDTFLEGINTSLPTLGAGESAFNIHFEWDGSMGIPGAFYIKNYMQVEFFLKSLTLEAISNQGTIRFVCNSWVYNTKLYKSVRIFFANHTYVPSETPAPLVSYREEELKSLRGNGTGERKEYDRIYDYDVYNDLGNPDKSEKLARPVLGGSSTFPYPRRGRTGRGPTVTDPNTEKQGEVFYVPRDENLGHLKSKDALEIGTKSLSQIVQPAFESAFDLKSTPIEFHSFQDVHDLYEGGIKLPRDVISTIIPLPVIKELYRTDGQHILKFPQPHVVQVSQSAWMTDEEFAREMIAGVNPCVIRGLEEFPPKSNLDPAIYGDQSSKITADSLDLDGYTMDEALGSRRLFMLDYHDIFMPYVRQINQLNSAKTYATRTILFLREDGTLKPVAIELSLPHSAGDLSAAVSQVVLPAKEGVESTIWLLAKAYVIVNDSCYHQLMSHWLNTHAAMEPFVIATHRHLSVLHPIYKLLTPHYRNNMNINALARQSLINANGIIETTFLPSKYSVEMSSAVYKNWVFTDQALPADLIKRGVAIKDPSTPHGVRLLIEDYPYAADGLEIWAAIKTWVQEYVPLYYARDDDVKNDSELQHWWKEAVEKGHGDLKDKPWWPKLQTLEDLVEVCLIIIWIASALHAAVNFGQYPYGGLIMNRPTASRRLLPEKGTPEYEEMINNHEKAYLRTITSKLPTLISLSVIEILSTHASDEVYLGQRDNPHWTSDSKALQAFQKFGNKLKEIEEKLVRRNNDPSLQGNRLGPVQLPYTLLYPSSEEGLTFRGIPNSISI
Text: (§1) Assay protocols for bioactivity were placed in electronic supplementary material.

α-glucosidase = α-glucosidase (Saccharomyces cerevisiae, UniProt P53341); experiment: In vitro α-glucosidase inhibition assay; format: biochemical; settings: NA = not active; for IC50: read-out: IC50 (µM) ± SEM α-glucosidase
Text: as §1
Synthesized diclofenac acid derivatives were screened for α-glucosidase inhibitory activity (table 2).

mononuclear cells (MNCs) = experiment: Cellular viability assay on mononuclear cells; format: cell-based, human
Text: (§2) All of the chemicals and solvents were obtained from Sigma-Aldrich and used directly without any purification. Mononuclear cells were isolated from the blood samples taken from healthy volunteers. Diclofenac acid was purchased from Alfa Aesar. Bruker Avance 400 and 500 MHz spectrometers were used to […] the ^1H and ^13C nuclear magnetic resonance (NMR) spectra, were captured with tetramethylsilane (TMS) serving as an internal reference. On a Finnegan MAT-311A mass spectrometer, high-resolution mass spectrometry using electron ionization (HRMS (EI)) data were recorded. Using the Stuart melting point apparatus, melting points in open capillaries were determined (SMP10). All reactions were monitored by using thin layer chromatography (TLC) plates that were pre-coated with silica gel 60F254.
as §1
(§3) Using mononuclear cells (MNCs) at a concentration of 0.25 mM as shown in the table 2, the per cent viability was calculated.

[1] = Cellular viability assay on mononuclear cells; format: cell-based, human; settings: human, mononuclear cells (MNCs) isolated from blood, read-out: cell viability (%) at 0.25 mM
Text: as §2, §1, §3

Chain of α-glucosidase (P53341 whole entry): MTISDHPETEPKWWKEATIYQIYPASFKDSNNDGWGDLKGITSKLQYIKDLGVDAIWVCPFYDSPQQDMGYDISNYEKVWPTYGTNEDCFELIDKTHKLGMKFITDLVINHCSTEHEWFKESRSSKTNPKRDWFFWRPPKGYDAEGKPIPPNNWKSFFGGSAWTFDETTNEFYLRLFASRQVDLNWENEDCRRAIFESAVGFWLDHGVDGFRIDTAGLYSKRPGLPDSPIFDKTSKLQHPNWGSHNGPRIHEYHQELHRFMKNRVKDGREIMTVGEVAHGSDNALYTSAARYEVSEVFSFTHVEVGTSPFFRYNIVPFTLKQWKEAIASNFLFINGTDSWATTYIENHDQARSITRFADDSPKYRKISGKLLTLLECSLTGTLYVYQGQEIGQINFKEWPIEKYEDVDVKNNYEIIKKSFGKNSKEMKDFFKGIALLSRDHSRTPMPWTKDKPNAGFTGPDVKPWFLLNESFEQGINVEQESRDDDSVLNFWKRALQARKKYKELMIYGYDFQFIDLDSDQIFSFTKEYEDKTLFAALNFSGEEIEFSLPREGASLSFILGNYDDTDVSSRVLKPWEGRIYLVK

| SMILES | IC50 (soybean 15-LOX) | IC50 (α-glucosidase) | cell viability (%) at 0.25 mM (mononuclear cells (MNCs)) | viability at 0.25 mM [1] | IC50 (µM) ± SEM α-glucosidase (α-glucosidase) |
| --- | --- | --- | --- | --- | --- |
| Clc1ccc(Nc2nnc(Cc3ccccc3Nc3c(Cl)cccc3Cl)o2)c(Cl)c1 [7e] | 172 ± 1 µM | 61 ± 1 µM | 43 ± 1% | – | – |
| O=c1c(O)c(-c2ccc(O)c(O)c2)oc2cc(O)cc(O)c12 [quercetin, reference compound] | – | – | – | 92 ± 1% | – |
| Sc1nnc(Cc2ccccc2Nc2c(Cl)cccc2Cl)n1-c1ccc(Cl)c(Cl)c1 [5f] | 75 ± 1 µM | 247 ± 1 µM | 97 ± 2% | – | – |
| Clc1ccc(Nc2nnc(Cc3ccccc3Nc3c(Cl)cccc3Cl)s2)c(Cl)c1 [8e] | > 250 µM | – | 75 ± 1% | – | inactive; also recorded: non-active |
| CCCSc1nnc(Cc2ccccc2Nc2c(Cl)cccc2Cl)n1-c1ccc(Cl)c(Cl)c1 [6d] | > 250 µM | 90 ± 1 µM | 78 ± 2% | – | – |
| Fc1ccc(Nc2nnc(Cc3ccccc3Nc3c(Cl)cccc3Cl)s2)cc1 [8c] | 173 ± 1 µM | 55 ± 1 µM | 76 ± 1% | – | – |
| Fc1cccc(-n2c(S)nnc2Cc2ccccc2Nc2c(Cl)cccc2Cl)c1 [5b] | 61 ± 1 µM | 308 ± 1 µM | 96 ± 2% | – | – |
| CCCSc1nnc(Cc2ccccc2Nc2c(Cl)cccc2Cl)n1-c1ccc(F)cc1 [6c] | > 250 µM | 92 ± 1 µM | 85 ± 1% | – | – |
| O=c1cc(-c2ccccc2)oc2cc(O)c(O)c(O)c12 [baicalein, reference compound] | 22 ± 1 µM | – | – | – | – |
| O=C(Cc1ccccc1Nc1c(Cl)cccc1Cl)NNC(=S)Nc1cccc(F)c1 [4b] | > 250 µM | 5 ± 1 µM | 82 ± 1% | – | – |
| Fc1ccc(-n2c(S)nnc2Cc2ccccc2Nc2c(Cl)cccc2Cl)cc1 [5c] | > 250 µM | 170 ± 1 µM | 96 ± 2% | – | – |
| O=C(Cc1ccccc1Nc1c(Cl)cccc1Cl)NNC(=S)Nc1ccc(F)cc1 [4c] | > 250 µM | 53 ± 1 µM | 62 ± 2% | – | – |
| COc1cc(/C=C/C(=O)CC(=O)/C=C/c2ccc(O)c(OC)c2)ccc1O [curcumin, reference compound] | – | – | – | 74 ± 2% | – |
| Clc1cccc(Nc2nnc(Cc3ccccc3Nc3c(Cl)cccc3Cl)s2)c1Cl [8d] | 132 ± 1 µM | 46 ± 1 µM | 98 ± 2% | – | – |
| Fc1ccccc1Nc1nnc(Cc2ccccc2Nc2c(Cl)cccc2Cl)o1 [7a] | 98 ± 1 µM | 7 ± 1 µM | 76 ± 1% | – | – |
| Fc1ccccc1Nc1nnc(Cc2ccccc2Nc2c(Cl)cccc2Cl)s1 [8a] | > 250 µM | 99 ± 1 µM | 86 ± 2% | – | – |

| SMILES | IC50 (soybean 15-LOX) | IC50 (α-glucosidase) | cell viability (%) at 0.25 mM (mononuclear cells (MNCs)) | viability at 0.25 mM [1] | IC50 (µM) ± SEM α-glucosidase (α-glucosidase) |
| --- | --- | --- | --- | --- | --- |
| Fc1cccc(Nc2nnc(Cc3ccccc3Nc3c(Cl)cccc3Cl)s2)c1 [8b] | 97 ± 1 µM | 11 ± 1 µM | 92 ± 2% | – | – |
| Clc1ccc(Nc2nnc(Cc3ccccc3Nc3c(Cl)cccc3Cl)o2)cc1Cl [7f] | 143 ± 1 µM | 91 ± 1 µM | 59 ± 2% | – | – |
| O=P1(N(CCCl)CCCl)NCCCO1 (stereo not shown) [cyclophosphamide, reference compound] | – | – | – | 56 ± 2% | – |
| O=C(Cc1ccccc1Nc1c(Cl)cccc1Cl)NNC(=S)Nc1ccccc1F [4a] | 163 ± 1 µM | 53 ± 1 µM | 79 ± 2% | – | – |
| CCSc1nnc(Cc2ccccc2Nc2c(Cl)cccc2Cl)n1-c1ccc(Cl)c(Cl)c1 [6b] | > 250 µM | 132 ± 1 µM | 98 ± 1% | – | – |
| Clc1cccc(Nc2nnc(Cc3ccccc3Nc3c(Cl)cccc3Cl)o2)c1Cl [7d] | 165 ± 1 µM | 79 ± 1 µM | 62 ± 2% | – | – |
| Fc1ccc(Nc2nnc(Cc3ccccc3Nc3c(Cl)cccc3Cl)o2)cc1 [7c] | 67 ± 1 µM | 85 ± 1 µM | 63 ± 1% | – | – |
| Sc1nnc(Cc2ccccc2Nc2c(Cl)cccc2Cl)n1-c1cccc(Cl)c1Cl [5d] | 141 ± 1 µM | 83 ± 1 µM | 96 ± 2% | – | – |
| Clc1ccc(Nc2nnc(Cc3ccccc3Nc3c(Cl)cccc3Cl)s2)cc1Cl [8f] | 156 ± 1 µM | 125 ± 1 µM | 95 ± 2% | – | – |
| Fc1ccccc1-n1c(S)nnc1Cc1ccccc1Nc1c(Cl)cccc1Cl [5a] | 14 ± 1 µM | 202 ± 1 µM | 97 ± 2% | – | – |
| O=C(Cc1ccccc1Nc1c(Cl)cccc1Cl)NNC(=S)Nc1cccc(Cl)c1Cl [4d] | 164 ± 1 µM | 28 ± 1 µM | 73 ± 1% | – | – |
| Fc1cccc(Nc2nnc(Cc3ccccc3Nc3c(Cl)cccc3Cl)o2)c1 [7b] | 87 ± 1 µM | 3 ± 1 µM | 72 ± 1% | – | – |
| O=C(Cc1ccccc1Nc1c(Cl)cccc1Cl)NNC(=S)Nc1ccc(Cl)cc1Cl [4e] | 177 ± 1 µM | 87 ± 1 µM | 64 ± 2% | – | – |
| CCSc1nnc(Cc2ccccc2Nc2c(Cl)cccc2Cl)n1-c1ccc(F)cc1 [6a] | > 250 µM | 116 ± 1 µM | 88 ± 2% | – | – |
| O=C(Cc1ccccc1Nc1c(Cl)cccc1Cl)NNC(=S)Nc1ccc(Cl)c(Cl)c1 [4f] | > 250 µM | 93 ± 1 µM | 64 ± 2% | – | – |
| Sc1nnc(Cc2ccccc2Nc2c(Cl)cccc2Cl)n1-c1ccc(Cl)cc1Cl [5e] | 93 ± 1 µM | 92 ± 1 µM | 94 ± 1% | – | – |
